Data set [1] in a line: Measurement of fluorescence quantum yield (relative quantum yield method). Conditions: Methanol. It is filed as physicochemical. How it is done:
For the tetraazaporphins obtained in Examples 1 to 11 and tetraaxzaporphins of this invention obtained in the same manner as in Examples 1 to 11, fluorescence quantum yield was measured according to the method for measuring relative quantum yield described in a reference [J. Photochem. Photobiol, A. Chemistry, vol. 45, p. 117-121 (1988)] using 1,1',3,3,3',3'-hexamethylindotricarbocyanine perchlorate or oxazine-720 as a standard substance in the near infrared region. As is clear from Tables 10 to 12, all of the fluorochromes for labeling of this invention show a sufficient fluorescence quantum yield.

For data set [2], the system named is DNA having a known base sequence. Kind of data set: Analysis of the base sequence of DNA (Sanger reaction with labeled primers, DNA sequencer equipped with a semiconductor laser). Conditions: Triton X-100; semiconductor laser 680 nm. As to the method: A DNA having a known base sequence was used as a sample. Sanger reaction was carried out for the 4 kinds of bases using each of the labeled primers synthesized in Examples 19 to 25 or primers having a tetraazaporphin attached thereto through a linker synthesized in the same manner as in Examples 19 to 25. The DNA fragments thus obtained were separated by electrophoresis in different lanes for the 4 reaction systems, respectively, and analyzed by means of a DNA sequencer equipped with a semiconductor laser. The reaction systems contained a nonionic surfactant as an addition if necessary.
Each of the phthalocyanines disclosed in International Application Number PCT/US89/03807 was attached to the oligonucleotide primer obtained in Example 18, according to the methods of grafted patents and the methods described in Examples 19 to 25 of this invention. Using each of the phthalocyanine-attached oligonucleotides thus obtained, the base sequence of DNA was analyzed in the same manner as in Example 26.

The next data set has as its system Human β-globin gene. Description: Detection of β-globin gene in human DNA by PCR with labeled primers, fluorescence intensity of eluate. Conditions: Triton X-100, laser 680 nm. As to the method:
Human β-globin gene was detected by a gene detection method using the PCR (Polymorase Chain Reaction) method.
Twenty cycles of gene amplification was carried out (the total volume of solution: 100 μl) according to the protocol of Perkin-Elmer-Cetus Corporation by using human placental DNA (1 μg), each of the labeled primers, i.e., illustrative compound No.-[…], synthesized in the manner described above (300 ng), HO-[…] (300 ng), a nonionic surfactant, and TaqDNA polymerase (Perkin-Elmer-Cetus Corporation).
Human placental DNA (1 μg), the same illustrative compound No.-[…] as in sample 1 (300 ng), HO-[…] (300 ng) and a nonionic surfactant were added to a reaction solution containing no TaqDNA polymerase which had been prepared according to the protocol of Perkin-Elmer-Cetus Corporation (the total volume of the solution: 100 μl). […]
After washing with buffer solution A (500 μl) and buffer solution A containing 5% ethanol (500 μl), elution was carried out using buffer solution A containing 10% ethanol (500 μl). The pH of the eluate was adjusted to about 8, and fluorescence intensity was measured by means of a photodiode array by using a semiconductor laser as an exciting light source. […]

For data set [3], the system named is anti-morphine monoclonal antibody. In kind it is binding. How it is done: For morphine, aminomorphine and the above-mentioned fluorochrome-labeled morphines, relative immuno-affinity for anti-morphine monoclonal antibody was measured using a competitive reaction in which they competed with tritium-labeled morphine.

Read-outs that look alike come from different tables or passages of the source.

“sodium bis(tributylsiloxy)silicon-tetraphenylthioquinolocyanineoctacarboxylate [Illustrative compound No. 21]”: the Fluorescence quantum yield in data set [1] (excitation wavelength 650 nm) stood at 0.52.

Turning to “Tetraazaporphin-labeled primer 62: oligonucleotide primer 5'-GTTTCCCAGTCACGAC-3' labeled with illustrative compound No. 62 (labeled with tetraazaporphin compound No. 62, position not given here)”, in data set [2], the “Number of bases of DNA” value is 350 and the Precision amounted to 99.7%. For the same compound, the “Relative intensity Sample 1” value with Human β-globin gene (Sample 1 (with TaqDNA polymerase, 20 cycles)) is listed as 6. Besides, the “Relative intensity Sample 2” value in the data set with Human β-globin gene (Sample 2 (no TaqDNA polymerase)) was found to be 134.

“3-(4-aminobutyl)morphine [Aminomorphine]”: in data set [3], the Relative affinity is given as 1.

Consider “sodium bis(tributylsiloxy)silicon-tetraphenylthionaphthalocyaninesulfonate [Illustrative compound No. 6]”, for which the Fluorescence quantum yield in data set [1] (excitation wavelength 700 nm) worked out at 0.30.

Compound “sodium bis(trihydroxyneopentoxy)silicon-tetraphenylthionaphthalocyanineoctacarboxylate [Illustrative compound No. 11]” had a Fluorescence quantum yield in data set [1] (excitation wavelength 700 nm) of 0.34.

In the case of `CN1CC[C@]23c4c5ccc(O)c4O[C@H]2[C@@H](O)C=C[C@H]3[C@H]1C5` [Morphine], the Relative affinity in data set [3] (relative to morphine, competitive reaction with tritium-labeled morphine) was determined as 1.

In turn, “sodium bis(tripropylsiloxy)silicon-tetraethylthionaphthalocyaninetetracarboxylate [Illustrative compound No. 16]” yielded a Fluorescence quantum yield in data set [1] (excitation wavelength 700 nm) of 0.32.

As to “sodium bis(tributylsiloxy)silicon-tetraphenylthionaphthalocyanine octacarboxylate [Illustrative compound No. 1]”, the Fluorescence quantum yield in data set [1] (excitation wavelength 700 nm) stood at 0.33.

The record behind these values is patent US5438135A, “Water-soluble tetraazaporphins and fluorochrome for labeling” (Hitachi Chemical Company, priority 1991, dated 1995).
